The nature of this series: hygroscopicity of the solid salt. The format is physicochemical. The following applies: both crystalline and amorphous forms.

Each structure is given as a SMILES string.

For the compound `COc1ccc2[nH]c([S@@+]([O-])Cc3ncc(C)c(OC)c3C)nc2c1` [(S)-omeprazole barium, (S)-5-methoxy-2-[[(4-methoxy-3,5-dimethyl-2-pyridinyl)-methyl]sulfinyl]-1H-benzimidazole], the hygroscopicity result is “non-hygroscopic”.

The record behind these values is patent US20110086884A1, “BARIUM SALT OF BENZIMIDAZOLE DERIVATIVE” (priority 2003, published 2011).
